From article PMC7607875, “Enhancing the antibacterial activity of antimicrobial peptide PMAP-37(F34-R) by cholesterol modification” (BMC Veterinary Research, 2020)
In brackets after ≈: the same amount, converted by molar mass. Marks after values point to notes of the source that are not given here. Residues, ends and D or L forms follow the SMILES beside them. No end group written: not given here. *: point of attachment. Cholesteryloxycarbonyl = CC(C)CCC[C@@H](C)[C@H]1CC[C@H]2[C@@H]3CC=C4C[C@@H](OC(=O)*)CC[C@]4(C)[C@H]3CC[C@]12C

How the values were obtained:
[1] = system: L. monocytogenes CICC21634; test: Inhibition zone assay (Kirby-Bauer disk diffusion); assay type: cell-based; design: key: +, peptide have antibacterial activity; conditions: disk with 10 μg, 37 °C, 18 h
Description: (§1) The antibacterial activity of Chol-37(F34-R) was detected using the Kirby-Bauer diffusion method. Four bacterial strains were used as experimental strains: L. monocytogenes CICC21634 cultured with BHI, P. aeruginosa GIM1.551 cultured with TSB, S. aureus ATCC25923, and S. typhimurium SL1344 cultured with LB medium. Briefly, the bacterial cells were cultured for 12 h at 37 °C in appropriate culture media, and the bacterial cell suspension was spread on the corresponding solid medium. Then, the disks containing 10 μg peptide or ceftiofur sodium were attached to the solid medium and incubated at 37 °C for 18 h. Lastly, the diameter of the inhibition zone was measured.

[2] = system: S. aureus ATCC25923; test: Inhibition zone assay (Kirby-Bauer disk diffusion); assay type: cell-based; design: key: +, peptide have antibacterial activity; conditions: disk with 10 μg, 37 °C, 18 h
Description: as §1

[3] = system: S. typhimurium SL1344; test: Inhibition zone assay (Kirby-Bauer disk diffusion); assay type: cell-based; design: key: +, peptide have antibacterial activity; conditions: disk with 10 μg, 37 °C, 18 h
Description: as §1

[4] = system: P. aeruginosa GIM1.551; test: Inhibition zone assay (Kirby-Bauer disk diffusion); assay type: cell-based; design: key: +, peptide have antibacterial activity; conditions: disk with 10 μg, 37 °C, 18 h
Description: as §1

[5] = system: S. aureus ATCC25923; test: S. aureus ATCC25923-infected mouse abscess model; assay type: in vivo; conditions: 10 μL of 1 μg/μL once per day for 3 days, day 3, n = 5
From the text: (§2) The abscess model of mouse was built against S. aureus ATCC25923 or P. aeruginosa GIM1.551 as previously described with minor modifications. Twelve groups of 60 mice (5 mice per group) were randomly divided into PMAP-37, PMAP-37(F34-R), Chol-37(F34-R), ampicillin sodium (against S. aureus ATCC25923-infected mouse abscess model), benzylpenicillin potassium (against P. aeruginosa GIM1.551-infected mouse abscess model), PBS, and blank groups. The fur on the back of each mouse was shaved. Bacterial suspensions (1 × 10^8 CFU/mL, 50 μL) were injected into the right side of the dorsum underneath the thin skeletal muscle. After 1 h of inoculation, the infected areas were directly injected with PMAP-37, (10 μL, 1 μg/μL), PMAP-37(F34-R) (10 μL, 1 μg/μL), Chol-37(F34-R) (10 μL, 1 μg/μL), antibiotic (ampicillin sodium 10 μL, 1 μg/μL or benzylpenicillin potassium 10 μL, 1 μg/μL), or PBS (10 μL). The treatment program was conducted once per day for 3 days. Mice in the blank group were not challenged and treated. Three days after treatment, mice were euthanized with 120 mg/kg i.p. sodium pentobarbital, and their skin abscesses were harvested and homogenized as described above to assess the bacterial burden.

[6] = system: S. aureus ATCC25923; test: S. aureus ATCC25923-infected mouse peritonitis model; assay type: in vivo; conditions: i.p. 20 μL of 1 μg/μL once per day for 3 days
Description: The dissemination of S. aureus ATCC25923 to target organs was assessed in the peritonitis model. The assessment was performed on the basis of the method described previously with minor modifications. Six groups of 60 mice (10 mice per group) were randomly divided into PMAP-37, PMAP-37(F34-R), Chol-37(F34-R), ampicillin sodium, PBS, and blanks group. Bacterial suspension (1 × 10^8 CFU/mL, 100 μL) was intraperitoneally injected into mice. After 2 h inoculation, PMAP-37 (20 μL, 1 μg/μL), PMAP-37(F34-R) (20 μL, 1 μg/μL), Chol-37(F34-R) (20 μL, 1 μg/μL), ampicillin sodium (20 μL, 1 μg/μL), or PBS (20 μL) was intraperitoneally injected into the mice, and the treatment program was implemented once per day for 3 days. Mice in the blank group were not challenged and treated. […] Aliquots of diluted homogenized tissues were spread on LB agar, on which the bacterial burden was determined for analysis. […] Pathological changes were scored as follows: a score of 1 indicated no pathology, 2 indicated perivascular infiltrates, 3 indicated perivascular and interstitial infiltrates affecting < 20% of the section, 4 indicated perivascular and interstitial infiltrates affecting 20 to 50% of the section, and 5 indicated perivascular and interstitial infiltrates affecting > 50% of the section.

[7] = system: S. aureus ATCC25923; assay type: cell-based; conditions: ATCC25923, 12 h
Description: (§3) The MIC values of Chol-37(F34-R) were determined using the microdilution method of the Clinical and Laboratory Standards Institute. Antibacterial intensity was tested in MHB against S. aureus ATCC25923, L. monocytogenes CICC21634, S. typhimurium SL1344, and P. aeruginosa GIM1.551. The tested strains were cultured for 12 h at 37 °C. Then, the bacterial inoculum concentration was adjusted to 1 × 10^6 CFU/mL. Twofold serial dilutions covering different concentrations from 0.0039 to 256 μg/mL for each peptide were added to media containing cultures of the tested strains in 96-well plates, which were incubated at 37 °C for 18 h. The MIC values were determined by evaluating the OD600nm of the cultures.
(§4) The effects of salt ion and serum on the antibacterial activities of Chol-37(F34-R) were investigated by MIC assay. S. aureus ATCC25923 and P. aeruginosa GIM1.551 were used as the tested strains. The MIC values were determined at recommended doses of NaCl (8.766 g/L), CaCl2 (0.039 g/L), and fetal bovine serum (20%).
(§5) The effects of salt ion and serum on antibacterial activities of PMAP-37(F34-R)-C were investigated by MIC assay. a, The control MIC values were determined in the absence of physiological salts and serum. b, c, and d, The final concentrations of NaCl, CaCl2, and serum were 8.766 g/L, 0.039 g/L, and 20% (v/v), respectively.

[8] = system: P. aeruginosa GIM1.551; assay type: cell-based; conditions: GIM1.551, 12 h
Description: as §3, §4, §5

[9] = system: S. typhimurium SL1344; assay type: cell-based; conditions: SL1344, 18 h
Description: as §3

[10] = system: L. monocytogenes CICC21634; test: MIC assay, microdilution method; assay type: cell-based
Description: as §3

[11] = system: S. aureus ATCC25923; test: MIC assay, microdilution method; assay type: cell-based
Description: as §3

[12] = system: P. aeruginosa GIM1.551; test: MIC assay, microdilution method; assay type: cell-based
Description: as §3

[13] = system: P. aeruginosa GIM1.551; test: P. aeruginosa GIM1.551-infected mouse abscess model; assay type: in vivo; conditions: P. aeruginosa GIM1.551 model; 10 μL of 1 μg/μL once per day for 3 days, day 3; n = 5
From the text: as §2

[14] = system: P. aeruginosa GIM1.551; test: P. aeruginosa GIM1.551-infected mouse knife injury model; assay type: in vivo; conditions: topical 10 μL of 1 μg/μL once per day for 7 days, day 7
Description: The P. aeruginosa strain GIM1.551 was used to build knife wound model of mouse as described elsewhere with minor modifications. A total of 30 mice were randomly divided into six groups. Briefly, the fur on the back of each mouse was removed by shaving. A 1.5 cm linear knife wound was made on the back of each mouse and infected by direct seeding with bacterial suspensions (1 × 10^8 CFU/mL, 50 μL). One day postinfection, the wounds were administered with PMAP-37 (10 μL, 1 μg/μL), PMAP-37(F34-R) (10 μL, 1 μg/μL), Chol-37(F34-R) (10 μL, 1 μg/μL), ampicillin sodium (10 μL, 1 μg/μL), or PBS (10 μL), and the treatment program was performed once per day for 7 days. The mice with no infection and treatment were used as blank control. The wounds of mice were wrapped in gauze bandages that were changed every day. Seven days after treatment, mice were euthanized with 120 mg/kg intraperitoneal (i.p.) sodium pentobarbital and their wound tissues were collected. The wound tissues were homogenized with a basic homogenizer. Following a 10-fold serial dilution in PBS, the homogenates were spread on TSB agar plates. The bacterial burden was determined after incubation at 37 °C for 18 h.

[15] = system: NIH 3 T3 cells; test: Cytotoxicity assay (MTT); conditions: 24 h, at a concentration of 1280 μg/mL, n = 5
Description: NIH 3 T3 cells were seeded in a 96-well with a density of 1× 10^4 cells per well and incubated in 37 °C for 24 h. Afterward, the cell medium was replaced by fresh DMEM containing various concentrations of peptides (2.5–1280 μg/mL). After 24 h incubation, 20 μL MTT agent (5 mg/mL) was added to each well and incubated for 4 h. Then, the supernatant of each well was replaced with 150 μL DMSO. The absorbance was measured by a microplate reader (FlexStation III) at 570 nm.

[16] = system: mouse erythrocytes; test: Hemolytic assay; conditions: at 1280 μg/mL, 1 h, OD570nm, n = 5
Description: Mouse erythrocytes were diluted to a final suspension concentration of 8% (v/v). Then, 100 μL erythrocyte suspension was incubated with 100 μL peptides at different concentrations ranging from 2.5 to 1280 μg/mL. PBS and 0.2% Triton X-100 were used as negative and positive controls, respectively. After 1 h of incubation, the tested samples were centrifuged for 5 min at 1000 g. Lastly, the absorbance of the supernatant of tested samples was measured at 570 nm. The percentage of hemolytic was obtained using the following formula: Hemolysis rate = [OD570nm (peptides) − OD570nm (PBS)]/[OD570nm (Triton X − 100) − OD570nm (PBS)] × 100 % .

Molecule: CO/N=C(\C(=O)N[C@@H]1C(=O)N2C(C(=O)[O-])=C(CSC(=O)c3ccco3)CS[C@H]12)c1csc(N)n1.[Na+] [ceftiofur sodium]
- in vitro antibacterial activity (disk diffusion) [1]: +
- in vitro antibacterial activity (disk diffusion) [2]: +
- in vitro antibacterial activity (disk diffusion) [3]: +
- in vitro antibacterial activity (disk diffusion) [4]: +

Molecule: CC1(C)S[C@@H]2[C@H](NC(=O)Cc3ccccc3)C(=O)N2[C@H]1C(=O)O [benzylpenicillin potassium]
- bacterial load in the abscess [5]: reduced bacterial load in the abscess
- tissue damage of liver and spleen (histopathology) [6]: eliminated most of the damaged tissues
- bacterial load in the liver and spleen ([6]; n = 5): reduced the bacterial load

Molecule: GLLSRLRDFLSDRGRRLGEKIERIGQKIKDLSERFQS [PMAP-37(F34-R)]
- MIC, CaCl2 [7]: 0.0156 mg/L
- MIC, Fetal bovine serum [7]: 0.0156 mg/L
- MIC, NaCl [7]: 0.0156 mg/L
- MIC, control [7]: 0.0156 mg/L
- MIC, CaCl2 [8]: 1 mg/L
- MIC, Fetal bovine serum [8]: 1 mg/L
- MIC, NaCl [8]: 1 mg/L
- MIC, control [8]: 1 mg/L
- MIC [9]: 1** μg/mL
- MIC ([10]; CICC21634, 18 h): 2* μg/mL
- MIC ([11]; ATCC25923, 18 h): 0.0156* μg/mL
- MIC ([12]; GIM1.551, 18 h): 1* μg/mL

Molecule: CC1(C)S[C@@H]2[C@H](NC(=O)[C@H](N)c3ccccc3)C(=O)N2[C@H]1C(=O)O [ampicillin sodium]
- bacterial load in the abscess [13]: reduced bacterial load in the abscess
- wound size vs PBS group [14]: smaller wound sizes than that of the PBS group

Molecule: CC[C@H](C)[C@H](NC(=O)[C@H](CCCNC(=N)N)NC(=O)[C@H](CCC(=O)O)NC(=O)[C@@H](NC(=O)[C@H](CCCCN)NC(=O)[C@H](CCC(=O)O)NC(=O)CNC(=O)[C@H](CC(C)C)NC(=O)[C@H](CCCNC(=N)N)NC(=O)[C@H](CCCNC(=N)N)NC(=O)CNC(=O)[C@H](CCCNC(=N)N)NC(=O)[C@H](CC(=O)O)NC(=O)[C@H](CO)NC(=O)[C@H](CC(C)C)NC(=O)[C@H](Cc1ccccc1)NC(=O)[C@H](CC(=O)O)NC(=O)[C@H](CCCNC(=N)N)NC(=O)[C@H](CC(C)C)NC(=O)[C@H](CCCNC(=N)N)NC(=O)[C@H](CO)NC(=O)[C@H](CC(C)C)NC(=O)[C@H](CC(C)C)NC(=O)CNC(=O)O[C@H]1CC[C@@]2(C)C(=CC[C@H]3[C@@H]4CC[C@H]([C@H](C)CCCC(C)C)[C@@]4(C)CC[C@@H]32)C1)[C@@H](C)CC)C(=O)NCC(=O)N[C@@H](CCC(N)=O)C(=O)N[C@@H](CCCCN)C(=O)N[C@H](C(=O)N[C@@H](CCCCN)C(=O)N[C@@H](CC(=O)O)C(=O)N[C@@H](CC(C)C)C(=O)N[C@@H](CO)C(=O)N[C@@H](CCC(=O)O)C(=O)N[C@@H](CCCNC(=N)N)C(=O)N[C@@H](Cc1ccccc1)C(=O)N[C@@H](CCC(N)=O)C(=O)N[C@@H](CO)C(=O)O)[C@@H](C)CC [Chol-37(F34-R)] (Cholesteryloxycarbonyl-GLLSRLRDFLSDRGRRLGEKIERIGQKIKDLSERFQS-OH)
- cell survival rate [15]: over 80%
- hemolysis rate [16]: less than 5%
- MIC, CaCl2 [7]: 0.0078 mg/L (≈ 0.00163 µM)
- MIC, Fetal bovine serum [7]: 0.0078 mg/L (≈ 0.00163 µM)
- MIC, NaCl [7]: 0.0078 mg/L (≈ 0.00163 µM)
- MIC, control [7]: 0.0078 mg/L (≈ 0.00163 µM)
- MIC, CaCl2 [8]: 0.5 mg/L (≈ 0.104 µM)
- MIC, Fetal bovine serum [8]: 0.5 mg/L (≈ 0.104 µM)
- MIC, NaCl [8]: 0.5 mg/L (≈ 0.104 µM)
- MIC, control [8]: 0.5 mg/L (≈ 0.104 µM)
- MIC ([10]; L. monocytogenes CICC21634, MHB, 1 × 10^6 CFU/mL, 37 °C, 18 h, OD600nm, three independent experiments performed in triplicate): 0.5** μg/mL
- MIC ([11]; S. aureus ATCC25923, MHB, 1 × 10^6 CFU/mL, 37 °C, 18 h, OD600nm, three independent experiments performed in triplicate): 0.0078** μg/mL
- MIC ([12]; P. aeruginosa GIM1.551, MHB, 1 × 10^6 CFU/mL, 37 °C, 18 h, OD600nm, three independent experiments performed in triplicate): 0.5** μg/mL

Molecule: GLLSRLRDFLSDRGRRLGEKIERIGQKIKDLSEFFQS [PMAP-37]
- MIC, CaCl2 [7]: 0.0313 mg/L
- MIC, Fetal bovine serum [7]: 0.0313 mg/L
- MIC, NaCl [7]: 0.0313 mg/L
- MIC, control [7]: 0.0313 mg/L
- MIC, CaCl2 [8]: 2 mg/L
- MIC, Fetal bovine serum [8]: 2 mg/L
- MIC, NaCl [8]: 2 mg/L
- MIC, control [8]: 2 mg/L
- MIC [9]: 4 µg/mL
- MIC ([10]; CICC21634, 18 h): 4 µg/mL
- MIC ([11]; ATCC25923, 18 h): 0.0313 µg/mL
- MIC ([12]; GIM1.551, 18 h): 2 µg/mL
